Here are results for 4 compounds from US20230382924A1, “MODULATORS OF CYSTIC FIBROSIS TRANSMEMBRANE CONDUCTANCE REGULATOR” (VERTEX PHARMACEUTICALS INCORPORATED, priority 2020, published 2023).

Read-outs that look alike come from different tables or passages of the source.

Data set [1] addresses T1, CFTR (Homo sapiens, UniProt P13569). Description: standard Ussing Chamber Assay for CFTR potentiator activity. Format: cell-based.
Target sequence in this assay (P13569 whole entry, species assumed): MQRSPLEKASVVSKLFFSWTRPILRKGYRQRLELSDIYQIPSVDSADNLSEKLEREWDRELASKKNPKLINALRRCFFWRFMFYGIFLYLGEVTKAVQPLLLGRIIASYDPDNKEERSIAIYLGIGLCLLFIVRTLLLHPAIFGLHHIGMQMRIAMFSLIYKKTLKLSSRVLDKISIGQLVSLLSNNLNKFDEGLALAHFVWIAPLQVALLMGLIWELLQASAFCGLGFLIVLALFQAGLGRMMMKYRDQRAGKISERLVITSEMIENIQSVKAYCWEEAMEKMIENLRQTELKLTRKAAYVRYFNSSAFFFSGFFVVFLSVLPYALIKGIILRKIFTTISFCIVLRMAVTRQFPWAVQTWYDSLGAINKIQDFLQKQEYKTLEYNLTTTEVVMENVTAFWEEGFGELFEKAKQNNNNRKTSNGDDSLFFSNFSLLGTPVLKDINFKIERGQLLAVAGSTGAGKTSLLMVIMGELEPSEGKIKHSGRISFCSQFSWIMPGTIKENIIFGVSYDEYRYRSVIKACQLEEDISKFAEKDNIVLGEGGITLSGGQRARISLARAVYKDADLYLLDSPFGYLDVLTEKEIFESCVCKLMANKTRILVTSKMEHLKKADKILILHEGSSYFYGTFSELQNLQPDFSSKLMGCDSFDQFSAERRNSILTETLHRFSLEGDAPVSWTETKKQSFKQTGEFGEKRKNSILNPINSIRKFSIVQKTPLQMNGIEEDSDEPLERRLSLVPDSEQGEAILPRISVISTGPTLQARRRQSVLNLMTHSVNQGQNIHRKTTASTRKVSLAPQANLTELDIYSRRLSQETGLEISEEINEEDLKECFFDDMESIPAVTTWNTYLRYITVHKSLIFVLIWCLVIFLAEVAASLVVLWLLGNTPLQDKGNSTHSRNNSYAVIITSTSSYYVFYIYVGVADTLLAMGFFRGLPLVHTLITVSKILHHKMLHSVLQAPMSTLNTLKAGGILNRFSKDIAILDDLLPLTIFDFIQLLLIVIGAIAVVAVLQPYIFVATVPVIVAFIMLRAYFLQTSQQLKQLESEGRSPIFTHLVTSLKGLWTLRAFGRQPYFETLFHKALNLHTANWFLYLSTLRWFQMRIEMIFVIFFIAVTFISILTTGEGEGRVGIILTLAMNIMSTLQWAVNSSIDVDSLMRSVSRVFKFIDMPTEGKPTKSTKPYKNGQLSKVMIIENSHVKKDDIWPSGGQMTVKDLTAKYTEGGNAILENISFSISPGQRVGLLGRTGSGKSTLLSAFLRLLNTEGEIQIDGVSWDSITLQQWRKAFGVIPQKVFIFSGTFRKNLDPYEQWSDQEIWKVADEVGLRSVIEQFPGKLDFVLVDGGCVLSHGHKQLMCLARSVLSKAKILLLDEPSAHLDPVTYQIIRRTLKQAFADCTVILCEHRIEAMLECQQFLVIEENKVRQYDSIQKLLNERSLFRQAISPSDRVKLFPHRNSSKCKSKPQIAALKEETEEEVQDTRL
For data set [2] the following is noted: amide bond, 13-membered ring.
For data set [3], the target named is T1, CFTR. In words: Membrane Potential Dye, Enteroid Assay A. Format: cell-based. Conditions: for EC50: read-out: Ent. A EC50. In outline: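 Enteroid cells were loaded with methyl oxonol membrane potential dye (plus CaCCinh-A01 and Chicago Sky Blue) for 25 min at room temperature. Chloride transport was started by switching to chloride-free gluconate stimulation solution, with fluorescence read for 15 min. Activity was expressed as % of a triple-combination CFTR modulator control (3 μM, 3 μM, 300 nM acute).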
Target sequence in this assay (P13569 with tags, fused parts or gaps DEL508-508): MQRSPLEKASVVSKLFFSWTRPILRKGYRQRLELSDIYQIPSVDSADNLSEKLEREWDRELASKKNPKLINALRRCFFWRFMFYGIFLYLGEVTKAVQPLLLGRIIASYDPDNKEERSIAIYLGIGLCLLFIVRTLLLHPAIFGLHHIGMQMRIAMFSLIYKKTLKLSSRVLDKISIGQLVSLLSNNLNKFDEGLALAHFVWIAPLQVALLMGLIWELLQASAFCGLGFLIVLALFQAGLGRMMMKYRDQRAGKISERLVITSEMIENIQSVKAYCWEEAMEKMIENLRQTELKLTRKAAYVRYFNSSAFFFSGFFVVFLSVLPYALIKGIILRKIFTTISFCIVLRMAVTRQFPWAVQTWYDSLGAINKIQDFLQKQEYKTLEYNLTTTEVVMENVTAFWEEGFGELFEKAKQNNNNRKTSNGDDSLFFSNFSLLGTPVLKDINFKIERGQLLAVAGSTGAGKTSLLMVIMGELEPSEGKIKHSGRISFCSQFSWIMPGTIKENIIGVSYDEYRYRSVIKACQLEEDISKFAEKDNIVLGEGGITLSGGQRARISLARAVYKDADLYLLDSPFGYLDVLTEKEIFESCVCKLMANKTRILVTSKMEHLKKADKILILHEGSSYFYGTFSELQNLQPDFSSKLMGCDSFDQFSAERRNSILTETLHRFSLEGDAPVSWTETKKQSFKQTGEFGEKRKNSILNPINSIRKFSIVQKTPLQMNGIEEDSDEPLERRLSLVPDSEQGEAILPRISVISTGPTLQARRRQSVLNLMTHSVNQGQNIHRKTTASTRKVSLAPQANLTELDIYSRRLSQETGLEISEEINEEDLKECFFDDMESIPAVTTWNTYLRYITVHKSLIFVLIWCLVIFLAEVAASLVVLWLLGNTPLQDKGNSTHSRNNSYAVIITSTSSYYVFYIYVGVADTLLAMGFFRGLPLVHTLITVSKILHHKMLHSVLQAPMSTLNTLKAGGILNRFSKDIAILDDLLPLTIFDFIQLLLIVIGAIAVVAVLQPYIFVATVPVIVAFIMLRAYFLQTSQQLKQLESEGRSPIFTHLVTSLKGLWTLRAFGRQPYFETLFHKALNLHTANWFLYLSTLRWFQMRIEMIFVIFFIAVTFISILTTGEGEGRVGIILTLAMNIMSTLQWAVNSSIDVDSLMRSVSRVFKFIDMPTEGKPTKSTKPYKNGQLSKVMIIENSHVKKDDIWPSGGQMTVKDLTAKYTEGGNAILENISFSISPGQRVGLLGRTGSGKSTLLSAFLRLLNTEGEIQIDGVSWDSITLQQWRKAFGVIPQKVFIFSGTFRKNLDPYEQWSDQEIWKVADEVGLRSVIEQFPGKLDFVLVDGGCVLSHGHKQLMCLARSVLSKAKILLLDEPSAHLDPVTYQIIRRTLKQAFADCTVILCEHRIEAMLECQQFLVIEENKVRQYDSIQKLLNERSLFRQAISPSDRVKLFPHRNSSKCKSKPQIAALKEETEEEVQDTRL

In data set [4] the target is T1, CFTR. Description: Membrane Potential Dye, Enteroid Assay B. Format: cell-based. Conditions: for EC50: read-out: Ent. B EC50. In outline: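 Enteroid cells loaded 25 min at room temperature with 20 μM methyl oxonol plus 30 μM CaCCinh-A01 and 30 μM Chicago Sky Blue, then switched to chloride-free gluconate buffer. Chloride transport was started by chloride-free stimulation solution, with fluorescence read for 15 min.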
Target sequence in this assay (P13569 with tags, fused parts or gaps DEL508-508): as above

For data set [5] the following is noted: from Cc1cccc(C)c1-c1cc(OC(CN)c2ccc(Br)cc2)nc(NS(=O)(=O)c2cccc(C(=O)O)c2)n1; amide bond; 13-membered ring; FDPP/DIEA; DMF; 36.8 mM; 25.0 °C; 1.0 h.
In a further data set the target is T2, F508del (Homo sapiens, UniProt P13569, DEL508-508).
T2 construct: expressed in transfected cells
In words: 3T3 assay: membrane potential optical assay for F508del correction in NIH 3T3 cells. Conditions: Table 8. Format: cell-based. In outline: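 NIH 3T3 mouse fibroblasts stably expressing F508del were incubated with corrector compounds at a range of concentrations for 16–24 h at 37° C, then loaded with a redistribution voltage-sensing dye. A single addition of forskolin under a chloride gradient (gluconate-substituted bath, pH 7.4) gave the membrane-potential response, read by FLIPR.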

T2 sequence (P13569 with tags, fused parts or gaps DEL508-508): as above

Turning to `C[C@@H]1CCCCC[C@](O)(C(F)(F)F)C2=NN=C(O2)c2nc(c(C(F)(F)F)cc2N)O1` [(6R,12R)-17-amino-12-methyl-6,15-bis(trifluoromethyl)-13,19-dioxa-3,4,18-triazatricyclo[12.3.1.12,5]nonadeca-1(18),2,4,14,16-pentaen-6-ol], the CFTR modulatory activity result on CFTR [1] is on record as “confirmed”.
In general, EC50 refers to the concentration that produces a half-maximal response. As to `Cc1cccc(C)c1-c1cc2nc(n1)NS(=O)(=O)c1cccc(c1)C(=O)N[C@@H]1CN(C(=O)OC(C)(C)C)C[C@H]1O2` [Compound 57, tert-Butyl (3R,7R)-19-(2,6-dimethylphenyl)-9,15,15-trioxo-2-oxa-15λ^6-thia-5,8,16,18,21-pentaazatetracyclo[15.3.1.110,14.03,7]docosa-1(20),10(22),11,13,17(21),18-hexaene-5-carboxylate], in data set [2] (from Cc1cccc(C)c1-c1cc(O[C@@H]2CN(C(=O)OC(C)(C)C)C[C@H]2N)nc(NS(=O)(=O)c2cccc(C(=O)O)c2)n1, HATU/DIEA, DMF, 17.1 mM, 72.0 h), the ring closure, isolated yield turned out to be 18%. For the same compound, on CFTR [3] (Table 9), the “Ent. A Max Activity” value is reported as “+++ (+++ is >60%)” and the EC50 lay within 1000 to 3000 nM. In addition, at CFTR [4] (Table 9), the “Ent. B Max Activity” value is reported as “+++ (+++ is >60%)” and the EC50 was in the range of 1000 to 3000 nM.
Take `Cc1cccc(C)c1-c1cc2nc(n1)NS(=O)(=O)c1cccc(c1)C(=O)NCC(c1ccc(Br)cc1)O2` (stereo not drawn): the ring closure, isolated yield in data set [2] (from Cc1cccc(C)c1-c1cc(OC(CN)c2ccc(Br)cc2)nc(NS(=O)(=O)c2cccc(C(=O)O)c2)n1, HATU/DIEA, DMF, 26.4 mM, 25.0 °C, 2.0 h) stood at 25%. Also, the ring closure, yield after HPLC in data set [5] was found to be 52%.
In data set [2] (from Cc1cccc(C)c1-c1cc(O[C@H](c2ccc(C(C)(C)C)cc2)[C@@H](C)N)nc(NS(=O)(=O)c2cccc(C(=O)O)c2)n1, HATU/NaOtBu, DMF/MeTHF, 52.6 mM, 25.0 °C, 16.0 h, 2 steps), `Cc1cccc(C)c1-c1cc2nc(n1)NS(=O)(=O)c1cccc(c1)C(=O)N[C@H](C)[C@@H](c1ccc(C(C)(C)C)cc1)O2` [Compound 38, (10R,11R)-10-(4-tert-Butylphenyl)-6-(2,6-dimethylphenyl)-11-methyl-9-oxa-2λ^6-thia-3,5,12,19-tetraazatricyclo[12.3.1.14,8]nonadeca-1(18),4,6,8(19),14,16-hexaene-2,2,13-trione] had a ring closure, isolated yield of 39%. For the same compound, on CFTR [3] (Table 8), the “Ent. A Max Activity” value was “+++ (+++ is >60%)” and the EC50 is < 1000 nM. In addition, the Emax on F508del (NIH3T3, read-out: 3T3 Max Activity) is > 60%. The EC50 at F508del is < 1000 nM. At CFTR [4] (Table 8), the “Ent. B Max Activity” value is reported as “+++ (+++ is >60%)” and the EC50 is < 1000 nM.
